Results reported in patent publication US20150239831A1, “INHIBITORS OF CENTRAL NERVOUS SYSTEM VASOACTIVE INHIBITORY PEPTIDE RECEPTOR 2” (The Trustees Of Columbia University In The City Of New York, priority 2012, published 2015).

Tests used:
Format in all cases: cell-based
Design in all cases: expressed in transfected cells; host or cells: HEK293 cells transfected with VIPR2 in pCDNA3.1 (as described)
VIPR2 [1] = biological target: T1, VIPR2 (Homo sapiens, UniProt P41587); experiment: % Activity: inhibition of VIP-induced cAMP elevation and β-arrestin recruitment (Table 2)
T1 sequence (P41587 24-438): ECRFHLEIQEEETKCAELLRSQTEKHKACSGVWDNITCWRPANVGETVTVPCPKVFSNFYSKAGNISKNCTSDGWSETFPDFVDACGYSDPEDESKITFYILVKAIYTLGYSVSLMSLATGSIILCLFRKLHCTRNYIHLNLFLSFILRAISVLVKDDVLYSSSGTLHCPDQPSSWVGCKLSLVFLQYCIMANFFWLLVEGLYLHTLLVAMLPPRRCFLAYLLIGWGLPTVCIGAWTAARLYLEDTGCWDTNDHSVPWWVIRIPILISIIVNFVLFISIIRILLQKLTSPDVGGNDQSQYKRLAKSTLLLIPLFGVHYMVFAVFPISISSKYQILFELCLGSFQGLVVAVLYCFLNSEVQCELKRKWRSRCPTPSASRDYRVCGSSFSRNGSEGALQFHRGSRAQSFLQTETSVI
Procedure, shortened: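 Recruitment of β-arrestin measured by β-gal fragment complementation luminescence in HEK293 cells co-expressing VIPR2-ProLink and β-arrestin2-EA after 2 h compound at 37° C. VIP-driven cAMP rise in stable hVIPR2 HEK293 cells measured by HTRF after 30 min with inhibitor and VIP.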

VIPR2 [2] = biological target: T1, VIPR2; experiment: Inhibition of VIP-induced cAMP elevation (% Activity cAMP)
Procedure, shortened: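 HEK293 cells stably transfected with human VIPR2 were incubated with inhibitor and VIP for 30 min, then cAMP was detected by HTRF after at least 1 h at room temperature. The 665/620 nm ratio ×10,000 was calculated.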

VIPR2 [3] = biological target: T1, VIPR2; experiment: Inhibition of VIP-induced β-arrestin recruitment (% Activity Arrestin)
Procedure, shortened: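 Read-out is β-gal fragment complementation (luminescence) between ProLink-hVIPR2 and EA-β-arrestin2 in transiently transfected HEK293 cells. Cells rested overnight, then exposed to inhibitor 2 h at 37 °C before detection reagent (5 min–1 h, room temperature); values are % activity against VIP-driven recruitment.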

Compound	% Activity (VIPR2 [1]) [%]	inhibition at 0.5 µM (VIPR2 [2]; Batch 2) [%]	inhibition at 1 µM (VIPR2 [2]; Batch 2) [%]	inhibition at 5 µM (VIPR2 [2]; Batch 2) [%]	inhibition at 0.5 µM (VIPR2 [3]; Batch 2) [%]	inhibition at 1 µM (VIPR2 [3]; Batch 2) [%]	inhibition at 5 µM (VIPR2 [3]; Batch 2) [%]	inhibition at 0.5 µM (VIPR2 [2]; Batch 1) [%]	inhibition at 1 µM (VIPR2 [2]; Batch 1) [%]	inhibition at 5 µM (VIPR2 [2]; Batch 1) [%]	inhibition at 0.5 µM (VIPR2 [3]; Batch 1) [%]	inhibition at 1 µM (VIPR2 [3]; Batch 1) [%]	inhibition at 5 µM (VIPR2 [3]; Batch 1) [%]	inhibition at 0.5 µM (VIPR2 [2]; Batch 3) [%]	inhibition at 1 µM (VIPR2 [2]; Batch 3) [%]	inhibition at 5 µM (VIPR2 [2]; Batch 3) [%]	inhibition at 0.5 µM (VIPR2 [3]; Batch 3) [%]	inhibition at 1 µM (VIPR2 [3]; Batch 3) [%]	inhibition at 5 µM (VIPR2 [3]; Batch 3) [%]
CCN(CC)C(=O)[C@@H](Cc1ccccc1)C[C@H](O)CNS(=O)(=O)c1ccc([N+](=O)[O-])cc1 [Compound B15B]	−6.6	0.5	-8.4	-10.5	-3.6	1.2	-2.7												
O=C(N[C@H]1c2ccccc2C[C@H]1O)[C@H](Cc1ccccc1)C[C@H](O)CNS(=O)(=O)c1cccc([N+](=O)[O-])c1 [L]	27.35							18.4	15.2	21.3	24.2	35.1	33.4						
O=C(NCc1ccc(F)cc1F)[C@@H](Cc1ccccc1)C[C@H](O)CNS(=O)(=O)c1ccc([N+](=O)[O-])cc1 [Compound B14B]	21.1000	-5.4	4.7	18.2	23.9	20	24												
O=C([C@H](Cc1ccccc1)C[C@H](O)CNS(=O)(=O)c1ccc([N+](=O)[O-])cc1)N1CCCCC1 [Compound B18A]	−1.15	-4.8	-4.8	0.5	-10.2	-11.5	-2.8												
O=C(NCc1ccccc1)[C@@H](Cc1ccccc1)C[C@H](O)CNS(=O)(=O)c1ccc([N+](=O)[O-])cc1 [Compound B3B]	6.05	-1	1.5	4.9	-0.3	-4.1	7.2												
CC(C)c1cc(C(C)C)c(S(=O)(=O)NC[C@@H](O)C[C@@H](Cc2ccccc2)C(=O)N[C@H]2c3ccccc3C[C@H]2O)c(C(C)C)c1 [J]	49.15							19.5	18.6	90	29.7	30.9	8.3						
O=C(N[C@H]1c2ccccc2C[C@H]1O)[C@H](Cc1ccccc1)C[C@H](O)CNS(=O)(=O)c1ccccc1C(F)(F)F [R]	22.85							23	18.8	24.7	10.7	24.8	21						
Cc1ccc(S(=O)(=O)NC[C@@H](O)C[C@@H](Cc2ccccc2)C(=O)N[C@H]2c3ccccc3C[C@H]2O)c(C)c1 [N]	27.55							14.1	10.9	23.3	2.8	20.3	31.8						
CC1CCC(NC(=O)[C@H](Cc2ccccc2)C[C@H](O)CNS(=O)(=O)c2ccc([N+](=O)[O-])cc2)CC1 (some centres unmarked) [Compound B8A]	−1.2	-5	-2.5	-2.8	13.4	-1.3	0.4												
CCNC(=O)[C@H](Cc1ccccc1)C[C@H](O)CNS(=O)(=O)c1ccc([N+](=O)[O-])cc1 [Compound B16A]	−9.25	-7.1	-0.4	-6.2	15.2	0.1	-12.3												
O=C(NC[C@@H](O)C[C@@H](Cc1ccccc1)C(=O)N[C@H]1c2ccccc2C[C@H]1O)c1ccccc1[N+](=O)[O-] [G]	17.6							17.6	14.3	9.1	36.4	35.1	26.1						
CC1CCC(NC(=O)[C@@H](Cc2ccccc2)C[C@H](O)CNS(=O)(=O)c2ccc([N+](=O)[O-])cc2)CC1 (some centres unmarked) [Compound B8B]	2.15	-0.7	9.5	5.1	5.7	-0.4	-0.8												
O=C([C@@H](Cc1ccccc1)C[C@H](O)CNS(=O)(=O)c1ccc([N+](=O)[O-])cc1)N1CCOCC1 [Compound B9B]	1.65	-5.8	10.4	3	7	-13	0.3												
CCCCNC(=O)[C@H](Cc1ccccc1)C[C@H](O)CNS(=O)(=O)c1ccc([N+](=O)[O-])cc1 [Compound B7A]	9.55	0.9	5.1	5.3	-5.6	1.9	13.8												

Second part, the compound after the results:

% Activity (VIPR2 [1]) [%]	inhibition at 0.5 µM (VIPR2 [2]; Batch 2) [%]	inhibition at 1 µM (VIPR2 [2]; Batch 2) [%]	inhibition at 5 µM (VIPR2 [2]; Batch 2) [%]	inhibition at 0.5 µM (VIPR2 [3]; Batch 2) [%]	inhibition at 1 µM (VIPR2 [3]; Batch 2) [%]	inhibition at 5 µM (VIPR2 [3]; Batch 2) [%]	inhibition at 0.5 µM (VIPR2 [2]; Batch 1) [%]	inhibition at 1 µM (VIPR2 [2]; Batch 1) [%]	inhibition at 5 µM (VIPR2 [2]; Batch 1) [%]	inhibition at 0.5 µM (VIPR2 [3]; Batch 1) [%]	inhibition at 1 µM (VIPR2 [3]; Batch 1) [%]	inhibition at 5 µM (VIPR2 [3]; Batch 1) [%]	inhibition at 0.5 µM (VIPR2 [2]; Batch 3) [%]	inhibition at 1 µM (VIPR2 [2]; Batch 3) [%]	inhibition at 5 µM (VIPR2 [2]; Batch 3) [%]	inhibition at 0.5 µM (VIPR2 [3]; Batch 3) [%]	inhibition at 1 µM (VIPR2 [3]; Batch 3) [%]	inhibition at 5 µM (VIPR2 [3]; Batch 3) [%]	Compound
41.4													25	32.3	90.6	4.8	-2	-7.7	O=C(NCc1ccccc1)c1ccc(S(=O)(=O)NC[C@@H](O)C[C@@H](Cc2ccccc2)C(=O)N[C@H]2c3ccccc3C[C@H]2O)cc1 [Compound X098]
20.95							21.4	21.9	18.5	17.3	31.6	23.4							CS(=O)(=O)NC[C@@H](O)C[C@@H](Cc1ccccc1)C(=O)N[C@H]1c2ccccc2C[C@H]1O [Compound A5]
7.75							15.5	19	18.6	9.9	15.2	-3.1							O=C(CCN1C(=O)C=CC1=O)NC[C@@H](O)C[C@@H](Cc1ccccc1)C(=O)N[C@H]1c2ccccc2C[C@H]1O [Compound A21]
19.65													21.6	16.7	27.4	10.2	5.2	11.9	CC(C)CNc1ccc(S(=O)(=O)NC[C@@H](O)C[C@@H](Cc2ccccc2)C(=O)N[C@H]2c3ccccc3C[C@H]2O)cc1 [Compound X086]
4.6													1	6.9	16.7	5.3	5.1	-7.5	CC(C)C(=O)Nc1ccc(S(=O)(=O)NC[C@@H](O)C[C@@H](Cc2ccccc2)C(=O)N[C@H]2c3ccccc3C[C@H]2O)cc1 [Compound X092]
11.65													15.2	19.1	19.1	-1.2	4.9	4.2	CC(=O)Nc1ccc(S(=O)(=O)NC[C@@H](O)C[C@@H](Cc2ccccc2)C(=O)N[C@H]2c3ccccc3C[C@H]2O)cc1 [Compound X088]
18.75							14	22.3	21.1	-0.5	18.6	16.4							O=C(NC[C@@H](O)C[C@@H](Cc1ccccc1)C(=O)N[C@H]1c2ccccc2C[C@H]1O)c1ccc([N+](=O)[O-])cc1 [Compound A25]
15.5							10.7	16	23.2	16.2	11.3	7.8							CC(C)(C)c1ccc(C(=O)NC[C@@H](O)C[C@@H](Cc2ccccc2)C(=O)N[C@H]2c3ccccc3C[C@H]2O)cc1 [Compound A26]
15.05													-2.4	23	34.3	6.4	-0.3	-4.2	O=C(Nc1ccc(S(=O)(=O)NC[C@@H](O)C[C@@H](Cc2ccccc2)C(=O)N[C@H]2c3ccccc3C[C@H]2O)cc1)C1CC1 [Compound X093]
